Assay results reported in patent US6521630B1, “Tetrahydroquinazoline-2,4-diones and therapeutic uses thereof” (Pfizer Inc., priority 1999, dated 2003).
Counter-ions that a name gives are not always drawn.

SMILES | melting point
Cc1c(Cl)ccc2c(=O)n(CCCN3CC=C(c4ccc(Cl)cc4)CC3)c(=O)[nH]c12 (as salt: maleate) | 208 to 210 °C
O=c1[nH]c2cc(Cl)ccc2c(=O)n1CCCN1CC=C(c2ccc(Cl)cc2)CC1 (as salt: maleate) | 225 to 227 °C
Cc1ccc(C2=CCN(CCCn3c(=O)[nH]c4cccc(C)c4c3=O)CC2)cc1 (as salt: maleate) | 165 to 170 °C
Cc1cc(Br)c2[nH]c(=O)n(CCCN3CC=C(c4ccc(Cl)cc4)CC3)c(=O)c2c1 (as salt: maleate) | 212 to 214 °C
O=c1[nH]c2c(Cl)cc(Cl)cc2c(=O)n1CCCN1CC=C(c2ccc(Cl)cc2)CC1 (as salt: maleate) | 197 to 199 °C
Cc1ccc(C)c2c(=O)n(CCCN3CC=C(c4ccc(Cl)cc4)CC3)c(=O)[nH]c12 (as salt: maleate) | 212 to 220 °C
Cc1cccc2[nH]c(=O)n(CCCN3CC=C(c4ccc(Cl)cc4)CC3)c(=O)c12 (as salt: maleate) | 175 to 178 °C
O=c1[nH]c2c(O)cccc2c(=O)n1CCCN1CC=C(c2ccc(Cl)cc2)CC1 (as salt: hydrobromid) | 284 to 286 °C
O=c1[nH]c2ccc(Cl)cc2c(=O)n1CCCN1CC=C(c2ccc(Cl)cc2)CC1 (as salt: maleate) | 197 to 198 °C
O=c1[nH]c2cc([N+](=O)[O-])ccc2c(=O)n1CCCN1CC=C(c2ccc(Cl)cc2)CC1 (as salt: maleate) | 210 to 212 °C
Cc1cccc2c(=O)n(CCCN3CC=C(c4ccc(Cl)cc4)CC3)c(=O)[nH]c12 (as salt: maleate) | 215 to 217 °C
O=c1[nH]c2cc(F)ccc2c(=O)n1CCCN1CC=C(c2ccc(Cl)cc2)CC1 (as salt: maleate) | 197 to 198 °C
O=c1[nH]c2ccc([N+](=O)[O-])cc2c(=O)n1CCCN1CC=C(c2ccc(Cl)cc2)CC1 (as salt: maleate) | 205 to 207 °C
O=c1[nH]c2cccc(Cl)c2c(=O)n1CCCN1CC=C(c2ccc(Cl)cc2)CC1 (as salt: maleate) | 190 to 194 °C
O=c1[nH]c2c(Cl)cccc2c(=O)n1CCCN1CC=C(c2cccc(C(F)(F)F)c2)CC1 (as salt: maleate) | 205 to 210 °C
Cc1cccc2[nH]c(=O)n(CCCN3CC=C(c4cccc(C(F)(F)F)c4)CC3)c(=O)c12 (as salt: maleate) | 158 to 160 °C
Cc1ccc2c(=O)n(CCCN3CC=C(c4ccc(Cl)cc4)CC3)c(=O)[nH]c2c1 (as salt: maleate) | 199 to 201 °C
